Results published in patent US10208074B2, “Pyrazole compounds and method for making and using the compounds” (Rigel Pharmaceuticals, Inc., priority 2015, dated 2019).
Counter-ions that a name gives are not always drawn. Like-named read-outs stand apart in the source and are kept apart here.

What was measured:
IL-23 (p19/p40) = assay: IL23-p19 ELISA, Dendritic, LPS (compound screening using DC cells); assay type: cell-based, Human; conditions: PBMC-derived DC cells, IFNγ primed, LPS 1 μg/ml, 18 hours, 10 pt, read-out: IL23-p19 ELISA, Dendritic, LPS, 10 pt, EC50
How it was run: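 IL-23 in supernatants quantified by sandwich ELISA (anti-p19 capture, biotinylated anti-p40 detection, chemiluminescent readout) after 18 h LPS (1 μg/ml) stimulation. Cells were monocyte-derived DCs (GM-CSF/IL-4, 7 d), IFNγ-primed 24 h and given compound 1 h before LPS; viability by CellTiter Glo.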

IL-23p19 = assay: LPS induced IL23p19 in THP-1 cells (with IFNγ primed) assay; assay type: cell-based, Human; conditions: THP-1 cells, IFNγ primed, LPS 1 ug/mL, 18 hours, 10 pt, read-out: IL23-p19 ELISA, THP1-IFNy, LPS, 10 pt EC50
How it was run: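 Readout is secreted IL-23p19, quantified by chemiluminescent sandwich ELISA after 18 h LPS (1 ug/mL) stimulation of THP-1 cells that had been IFNγ-primed (50 ng/mL, ~18 h) and given compound 1 h beforehand at 37 °C. EC50 derived by curve fit; cytotoxicity tracked with Cell Titer Glo.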

Row | EC50 (IL-23 (p19/p40); Homo sapiens, 18 h) [nM] | EC50 (IL-23p19; Homo sapiens, THP-1, 18 h) [nM] | further results | Structure (SMILES)
1 | – | – | EC50 (IL-23 (p19/p40); formate): 1520 nM; EC50 (IL-23p19; formate): 313 nM | O=C(Nc1cn(C2C=C(F)C2)nc1-c1ccccn1)c1csc(-c2cn[nH]c2)n1 (centres unmarked) [II-133, N-(1-(3-fluorocyclobut-2-en-1-yl)-3-(pyridin-2-yl)-1H-pyrazol-4-yl)-2-(1H-pyrazol-4-yl)thiazole-4-carboxamide formate]
2 | 225 | 102 | – | O=C(Nc1cn(C2CC(F)(F)C2)nc1-c1ccccn1)c1csc(-c2cn[nH]c2)n1 [II-134, N-(1-(3,3-difluorocyclobutyl)-3-(pyridin-2-yl)-1H-pyrazol-4-yl)-2-(1H-pyrazol-4-yl)thiazole-4-carboxamide]
3 | 10700 | 1220 | – | N#Cc1nn([C@H]2C[C@@H](O)C2)cc1NC(=O)c1csc(-c2cn[nH]c2)n1 [II-136, N-(3-cyano-1-((1s,3s)-3-hydroxycyclobutyl)-1H-pyrazol-4-yl)-2-(1H-pyrazol-4-yl)thiazole-4-carboxamide]
4 | 32.3 | 30.8 | – | O=C(Nc1cn(C2CCC3(CC2)OCCO3)nc1-c1ncccc1F)c1csc(-c2cn[nH]c2)n1 [II-140, N-(3-(3-fluoropyridin-2-yl)-1-(1,4-dioxaspiro[4.5]decan-8-yl)-1H-pyrazol-4-yl)-2-(1H-pyrazol-4-yl)thiazole-4-carboxamide]
5 | 51.7 | 251 | – | O=C(Nc1cn([C@H]2C[C@H](OCC(F)(F)F)C2)nc1-c1ccccn1)c1csc(-c2cn[nH]c2)n1 [II-141, 2-(1H-pyrazol-4-yl)-N-(3-(pyridin-2-yl)-1-((trans)-3-(2,2,2-trifluoroethoxy)cyclobutyl)-1H-pyrazol-4-yl)thiazole-4-carboxamide]
6 | 16.4 | 30.8 | – | O=C(Nc1cn([C@H]2CC[C@H](O)CC2)nc1-c1ccccn1)c1csc(-c2cn[nH]c2)n1 [II-143, N-(1-((trans)-4-hydroxycyclohexyl)-3-(pyridin-2-yl)-1H-pyrazol-4-yl)-2-(1H-pyrazol-4-yl)thiazole-4-carboxamide]
7 | 78.4 | 66 | – | CCO[C@H]1CC[C@H](n2cc(NC(=O)c3csc(-c4cn[nH]c4)n3)c(-c3ccccn3)n2)CC1 [II-145, N-(1-((trans)-4-ethoxycyclohexyl)-3-(pyridin-2-yl)-1H-pyrazol-4-yl)-2-(1H-pyrazol-4-yl)thiazole-4-carboxamide]
8 | 141 | 748 | – | CCO[C@H]1C[C@@H](n2cc(NC(=O)c3csc(-c4cn[nH]c4)n3)c(-c3ccc(F)cn3)n2)C1 [II-153, N-(1-((cis)-3-ethoxycyclobutyl)-3-(5-fluoropyridin-2-yl)-1H-pyrazol-4-yl)-2-(1H-pyrazol-4-yl)thiazole-4-carboxamide]
9 | 61.2 | 399 | – | CCO[C@@H]1C[C@H](n2cc(NC(=O)c3csc(-c4cn[nH]c4)n3)c(-c3ccccn3)n2)C1F (stereo partly drawn) [II-155, N-(1-((cis)-3-ethoxy-2-fluorocyclobutyl)-3-(pyridin-2-yl)-1H-pyrazol-4-yl)-2-(1H-pyrazol-4-yl)thiazole-4-carboxamide]
10 | 564 | 61.5 | – | CCO[C@H]1C[C@@H](n2cc(NC(=O)c3csc(-c4cn[nH]c4)n3)c(-c3ncccc3F)n2)C1 [II-157, N-(1-((cis)-3-ethoxycyclobutyl)-3-(3-fluoropyridin-2-yl)-1H-pyrazol-4-yl)-2-(1H-pyrazol-4-yl)thiazole-4-carboxamide]
11 | 92.1 | 144 | – | CCO[C@H]1C[C@@H](n2cc(NC(=O)c3csc(-c4cn[nH]c4)n3)c(-c3cc(F)ccn3)n2)C1 [II-158, N-(1-((cis)-3-ethoxycyclobutyl)-3-(4-fluoropyridin-2-yl)-1H-pyrazol-4-yl)-2-(1H-pyrazol-4-yl)thiazole-4-carboxamide]
12 | 38.5 | 26.7 | – | CCO[C@H]1C[C@@H](n2cc(NC(=O)c3csc(-c4cn[nH]c4)n3)c(-c3cccc(F)n3)n2)C1 [II-160, N-(1-((cis)-3-ethoxycyclobutyl)-3-(6-fluoropyridin-2-yl)-1H-pyrazol-4-yl)-2-(1H-pyrazol-4-yl)thiazole-4-carboxamide]
13 | 482 | 112 | – | O=C(Nc1cn([C@H]2C[C@@H](OCC(F)(F)F)C2)nc1-c1ccccn1)c1csc(-c2cn[nH]c2)n1 [II-161, 2-(1H-pyrazol-4-yl)-N-(3-(pyridin-2-yl)-1-((cis)-3-(2,2,2-trifluoroethoxy)cyclobutyl)-1H-pyrazol-4-yl)thiazole-4-carboxamide]
14 | – | 109 | EC50 (IL-23 (p19/p40)): 348 nM | CCO[C@H]1C[C@@H](n2cc(NC(=O)c3csc(-c4cnn(COP(=O)(O)O)c4)n3)c(-c3ncccc3F)n2)C1 [II-163, (4-(4-((1-((cis)-3-ethoxycyclobutyl)-3-(3-fluoropyridin-2-yl)-1H-pyrazol-4-yl)carbamoyl)thiazol-2-yl)-1H-pyrazol-1-yl)methyl dihydrogen phosphate]
15 | – | – | EC50 (IL-23 (p19/p40)): 912 nM; EC50 (IL-23p19): 111 nM | CCO[C@H]1C[C@@H](n2cc(NC(=O)c3csc(-c4cnn(COP(=O)(O)O)c4)n3)c(-c3ncccc3F)n2)C1 [II-164, (4-(4-((1-((cis)-3-ethoxycyclobutyl)-3-(3-fluoropyridin-2-yl)-1H-pyrazol-4-yl)carbamoyl)thiazol-2-yl)-1H-pyrazol-1-yl)methyl disodium phosphate]
16 | 45.4 | 44.4 | – | O=C(Nc1cn([C@H]2C[C@@H](OCC(F)(F)F)C2)nc1-c1ncccc1F)c1csc(-c2cn[nH]c2)n1 [II-165, N-(3-(3-fluoropyridin-2-yl)-1-((cis)-3-(2,2,2-trifluoroethoxy)cyclobutyl)-1H-pyrazol-4-yl)-2-(1H-pyrazol-4-yl)thiazole-4-carboxamide]
17 | 96.2 | 94.9 | – | O=C(Nc1cn([C@H]2C[C@H](OCC(F)(F)F)C2)nc1-c1ncccc1F)c1csc(-c2cn[nH]c2)n1 [II-167, N-(3-(3-fluoropyridin-2-yl)-1-((trans)-3-(2,2,2-trifluoroethoxy)cyclobutyl)-1H-pyrazol-4-yl)-2-(1H-pyrazol-4-yl)thiazole-4-carboxamide]
18 | 410 | 42 | – | CCO[C@H]1CC[C@H](n2cc(NC(=O)c3csc(-c4cn[nH]c4)n3)c(-c3ncccc3F)n2)CC1 [II-169, N-(1-((trans)-4-ethoxycyclohexyl)-3-(3-fluoropyridin-2-yl)-1H-pyrazol-4-yl)-2-(1H-pyrazol-4-yl)thiazole-4-carboxamide]
19 | 90.4 | 49.1 | – | O=C(Nc1cn([C@H]2C[C@@H](OCC(F)(F)F)C2)nc1-c1cccc(F)n1)c1csc(-c2cn[nH]c2)n1 [II-170, N-(3-(6-fluoropyridin-2-yl)-1-((cis)-3-(2,2,2-trifluoroethoxy)cyclobutyl)-1H-pyrazol-4-yl)-2-(1H-pyrazol-4-yl)thiazole-4-carboxamide]
20 | 24.2 | 13 | – | O=C(Nc1cn([C@H]2C[C@@H](O)C2)nc1-c1cccc(F)n1)c1csc(-c2cn[nH]c2)n1 [II-172, N-(3-(6-fluoropyridin-2-yl)-1-((cis)-3-hydroxycyclobutyl)-1H-pyrazol-4-yl)-2-(1H-pyrazol-4-yl)thiazole-4-carboxamide]
21 | 314 | 41.4 | – | CCO[C@H]1C[C@@H](n2cc(NC(=O)c3csc(-c4cnn(COP(=O)(O)O)c4)n3)c(-c3cccc(F)n3)n2)C1 [II-173, (4-(4-((1-((cis)-3-ethoxycyclobutyl)-3-(6-fluoropyridin-2-yl)-1H-pyrazol-4-yl)carbamoyl)thiazol-2-yl)-1H-pyrazol-1-yl)methyl dihydrogen phosphate]
22 | 70.8 | 82.1 | – | CCO[C@H]1C[C@@H](n2cc(NC(=O)c3csc(-c4cn[nH]c4)n3)c(-c3nc(F)ccc3F)n2)C1 [II-174, N-(3-(3,6-difluoropyridin-2-yl)-1-((cis)-3-ethoxycyclobutyl)-1H-pyrazol-4-yl)-2-(1H-pyrazol-4-yl)thiazole-4-carboxamide]
23 | 37.3 | 119 | – | CCO[C@H]1CC[C@H](n2cc(NC(=O)c3csc(-c4cn[nH]c4)n3)c(-c3nnco3)n2)CC1 [II-178, N-(1-((1r,4r)-4-ethoxycyclohexyl)-3-(1,3,4-oxadiazol-2-yl)-1H-pyrazol-4-yl)-2-(1H-pyrazol-4-yl)thiazole-4-carboxamide]
24 | 74.8 | 12.5 | – | O=C(Nc1cn([C@H]2CC[C@H](NCC(F)F)CC2)nc1-c1ncccn1)c1csc(-c2cn[nH]c2)n1 [II-179, N-(1-((1r,4r)-4-((2,2-difluoroethyl)amino)cyclohexyl)-3-(pyrimidin-2-yl)-1H-pyrazol-4-yl)-2-(1H-pyrazol-4-yl)thiazole-4-carboxamide]
25 | 263 | 80.2 | – | CCO[C@H]1CC[C@H](n2cc(NC(=O)c3csc(-c4cn[nH]c4)n3)c(-c3ncc(F)cc3F)n2)CC1 [II-180, N-(3-(3,5-difluoropyridin-2-yl)-1-((1r,4r)-4-ethoxycyclohexyl)-1H-pyrazol-4-yl)-2-(1H-pyrazol-4-yl)thiazole-4-carboxamide]
